# Target: T1, CD2068 (Clostridioides difficile, UniProt Q188D7)
# T1 sequence (Q188D7 1-541): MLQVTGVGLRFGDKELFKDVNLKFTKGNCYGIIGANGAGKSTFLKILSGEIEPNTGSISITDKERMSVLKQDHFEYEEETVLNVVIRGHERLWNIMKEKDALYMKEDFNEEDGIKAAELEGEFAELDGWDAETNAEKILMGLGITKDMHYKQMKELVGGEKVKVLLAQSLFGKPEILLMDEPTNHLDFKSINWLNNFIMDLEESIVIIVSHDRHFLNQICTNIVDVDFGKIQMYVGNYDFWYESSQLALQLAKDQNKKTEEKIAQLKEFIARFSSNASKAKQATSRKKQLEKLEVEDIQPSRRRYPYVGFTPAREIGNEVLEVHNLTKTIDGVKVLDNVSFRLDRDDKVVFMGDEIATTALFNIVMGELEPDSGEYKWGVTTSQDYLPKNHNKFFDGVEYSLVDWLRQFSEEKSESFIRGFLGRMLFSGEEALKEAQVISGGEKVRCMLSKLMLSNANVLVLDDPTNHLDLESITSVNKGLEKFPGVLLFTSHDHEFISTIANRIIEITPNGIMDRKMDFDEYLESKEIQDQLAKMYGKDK
# Test: malachite green ATPase assay, purified CD2068 with […] ATP
# Type: biochemical
structure (smiles),measurement,value
Nc1ncnc2c1ncn2[C@@H]1O[C@H](COP(=O)(O)OP(=O)(O)OP(=O)(O)O)[C@@H](O)[C@H]1O [ATP],"malachite green ATPase assay, purified CD2068 with 1 mM ATP",52.52 nmol/min/mg
